#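 GI50: concentration for 50% inhibition of growth. At the TGI there is no net growth.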
# Key:
# Assay in all cases: inhibition of tumour cell growth, NCI panel, 384-well format
# SK-OV-3 ovarian = test system: SK-OV-3 ovarian
# SK-MEL-2 melanoma = test system: SK-MEL-2 melanoma
# SNB-75 CNS = test system: SNB-75 CNS
# M14 melanoma = test system: M14 melanoma
# 786-0 renal = test system: 786-0 renal
# KM12 colon = test system: KM12 colon
# MOLT-4 leukemia = test system: MOLT-4 leukemia
# NCI/ADR-RES ovarian = test system: NCI/ADR-RES ovarian
# HCT-116 colon = test system: HCT-116 colon
# NCI-H460 NSCLC = test system: NCI-H460 NSCLC
# RXF 393 renal = test system: RXF 393 renal
# NCI-H322M lung = test system: NCI-H322M lung
# HCC-2998 colon = test system: HCC-2998 colon
smiles,measurement,setting,value
C[C@@H](C(=O)Nc1ccc(Cl)cc1)C1CCC(c2ccnc3ccc(F)cc23)CC1 (stereo partly specified),GI50,SK-OV-3 ovarian,16.3 µM
same,TGI,SK-OV-3 ovarian,42.7 µM
same,GI50,SK-MEL-2 melanoma,3.07 µM
same,TGI,SK-MEL-2 melanoma,10.2 µM
same,GI50,SNB-75 CNS,14.7 µM
same,TGI,SNB-75 CNS,37.9 µM
same,GI50,M14 melanoma,13 µM
same,TGI,M14 melanoma,40.8 µM
same,GI50,786-0 renal,10.8 µM
same,TGI,786-0 renal,27 µM
same,GI50,KM12 colon,5.81 µM
same,TGI,KM12 colon,19.8 µM
same,GI50,MOLT-4 leukemia,2.22 µM
same,TGI,MOLT-4 leukemia,6.85 µM
same,GI50,NCI/ADR-RES ovarian,5.62 µM
same,TGI,NCI/ADR-RES ovarian,22 µM
same,GI50,HCT-116 colon,6.31 µM
same,TGI,HCT-116 colon,20.4 µM
same,GI50,NCI-H460 NSCLC,2.85 µM
same,TGI,NCI-H460 NSCLC,8.81 µM
same,GI50,RXF 393 renal,6.04 µM
same,TGI,RXF 393 renal,20.9 µM
same,GI50,NCI-H322M lung,17.7 µM
same,TGI,NCI-H322M lung,78.2 µM
same,GI50,HCC-2998 colon,4.23 µM
same,TGI,HCC-2998 colon,15.9 µM

# From PubChem BioAssay (NCI)
